A short description of data set [1]: Cytotoxicity, ATPlite Luminescence Assay. It counts as cell-based, human. The conditions noted are these: human, HepG2 or HepG2.117 cells, 3-days incubation unless marked with *, ATPlite viability. As for the experimental part: Cytotoxicity of the compounds was tested using HepG2 or HepG2.117 cells, incubated for 3 or 4 days in the presence of compounds. The viability of the cells was assessed using the PERKIN ELMER ATPlite Luminescence Assay System.”
Background: In ATP-based viability assays light output follows the ATP content of the culture.

The next data set concerns HBV. Nature of the data set: Anti-HBV activity in HepG2.117 cell line (intracellular HBV DNA, real-time PCR). It is filed as cell-based, hepatitis B virus. The conditions noted are these: HepG2.117 cells, HBV replication induced, 3 days of treatment, intracellular HBV DNA by real-time PCR. As for the experimental part: The anti HBV activity was measured using the HepG2.117 cell line, a stable, inducibly HBV producing cell line, which replicates HBV in the absence of doxycycline (Tet-off system). The HepG2 cell line is available from ATCCR under number HB-8065. Transfection of the HepG2 cell line can be as described in Sun and Nassal 2006 Journal of Hepatology 45 (2006) 636-645 “Stable HepG2-and Huh7-based human hepatoma cell lines for efficient regulated expression of infectious hepatitis B virus”.
For the antiviral assay, HBV replication was induced, followed by a treatment with serially diluted compound in 96-well plates. After 3 days of treatment, the antiviral activity was determined by quantification of intracellular HBV DNA using real-time PCR and an HBV specific primer set and probe.
A general note: In qPCR the cycle at which signal appears reflects the starting amount.

The nature of data set [2]: Human liver microsome stability. It counts as in vitro ADME. The conditions noted are these: human, pooled human liver microsomes, pH 7.4, pooled human liver microsomes 0.5 mg/mL, 1 μM compound, NADPH 1 mM, pH 7.4, 37° C., 0-60 min; read-out: HLM Metabolism t1/2. As for the experimental part: Pooled human liver microsomes (0.5 mg/mL) was pre-incubated with 1 μM test compounds or control compounds (verapamil, warfarin and cerivastatin) in 0.1 M phosphate buffer pH 7.4 containing 1 mM MgCl2 at 37° C. The final concentration of DMSO and acetonitrile are 0.05% and 0.2%, respectively. All incubations are performed singularly for each compound. NADPH was added to initiate the reaction with the final concentration of 1 mM and the final incubation volume of 400 μL.
At 6 time points (0, 5, 10, 20, 40 and 60 min) reactions were stopped by the removal of 50 μL of the incubation mixture into plates containing acetonitrile at a of 1:3 (v:v). The plates were centrifuged at 3000 rpm for 10 min at 4° C. to precipitate the protein. Following protein precipitation, the sample supernatants were combined in cassettes of up to 8 compounds. The internal standard was added (1:1 supernatant to internal standard solution) and samples were analyzed using standard LC-MS conditions.
From a plot of ln peak area ratio (compound peak area/internal standard peak area) against time, the gradient of the line is determined. Subsequently, half-life is calculated using the equations below: […]
(Liver microsomes are a subcellular fraction often used to study metabolism.)

Setting [3] is: Hepatitis B virus, HepG2.117, 72 h.

The text below walks through data of US20240279227A1, “FUSED HETEROCYCLIC DERIVATIVES” (Janssen Sciences Ireland Unlimited Company, priority 2021, published 2024).

The term CC50 denotes the concentration at which the toxic effect on the cells reaches its halfway point. Read a low CC50 as greater toxicity to the cells. Broadly, the EC50 is the concentration needed to bring the measured effect to its halfway point. The low end stands for a more potent agent, the high end for a less potent agent. The compound `CNC(=O)[C@@H]1CN(C(C)c2ccc(-n3cncn3)cc2)C(=O)c2c3c(nn21)C[C@@H](C)N(C(=O)c1ccc(Cl)c(Cl)c1)C3` (single isomer, unassigned) [Compound 2A, (3R,7S)-9-((R*)-1-(4-(1H-1,2,4-triazol-1-yl)phenyl)ethyl)-2-(3,4-dichlorobenzoyl)-N,3-dimethyl-10-oxo-1,2,3,4,7,8,9,10-octahydropyrido[4′,3′:3,4]pyrazolo[1,5-a]pyrazine-7-carboxamide] registered a CC50 in data set [1] of more than 50 µM. In the data set on HBV, this compound showed an EC50 of 0.042 µM. For the same compound, the half-life at 1 μM in data set [2] is more than 3 h.

In data set [1], `CNC(=O)[C@@H]1CN(C(C)c2ccc(-c3c(C)noc3C)nc2)C(=O)c2c3c(nn21)C[C@@H](C)N(C(=O)c1ccc(Cl)c(Cl)c1)C3` (single isomer, unassigned) [Compound 35A, (3R,7S)-2-(3,4-Dichlorobenzoyl)-9-((R*)-1-(6-(3,5-dimethylisoxazol-4-yl)pyridin-3-yl)ethyl)-N,3-dimethyl-10-oxo-1,2,3,4,7,8,9,10-octahydropyrido[4′,3′:3,4]pyrazolo[1,5-a]pyrazine-7-carboxamide] came in with a CC50 of more than 50 µM. For the same compound, in the data set with HBV, the EC50 was determined as 0.39 µM. For the same compound, the half-life at 1 μM in data set [2] worked out at 1.16 h.

In the case of `CNC(=O)[C@@H]1CN(C(C)c2ccc(-n3ncnc3C)cn2)C(=O)c2c3c(nn21)C[C@@H](C)N(C(=O)c1ccc(Cl)c(Cl)c1)C3` (single isomer, unassigned) [Compound 41A, (3R,7S)-2-(3,4-Dichlorobenzoyl)-N,3-dimethyl-9-((R*)-1-(5-(5-methyl-1H-1,2,4-triazol-1-yl)pyridin-2-yl)ethyl)-10-oxo-1,2,3,4,7,8,9,10-octahydropyrido[4′,3′:3,4] pyrazolo[1,5-a]pyrazine-7-carboxamide], the CC50 in data set [1] is more than 50 µM. Moreover, in the data set on HBV, the EC50 was 2.21 µM. For the same compound, the half-life at 1 μM in data set [2] was more than 3 h.

Compound `CNC(=O)[C@@H]1CN(C(C)c2ccc(S(=O)(=O)C3CC3)cc2)C(=O)c2c3c(nn21)C[C@@H](C)N(C(=O)c1ccc(Cl)c(C(F)(F)F)c1)C3` (single isomer, unassigned) [Compound 20A, (3R,7S)-2-(4-Chloro-3-(trifluoromethyl)benzoyl)-9-((R*)-1-(4-(cyclopropylsulfonyl)phenyl)ethyl)-N,3-dimethyl-10-oxo-1,2,3,4,7,8,9,10-octahydropyrido[4′,3′:3,4]pyrazolo[1,5-a]pyrazine-7-carboxamide] registered a CC50 in data set [1] of more than 50 µM. Moreover, in the data set on HBV, the concentration for a half-maximal effect (EC50) amounted to 0.089 µM. In addition, the half-life at 1 μM in data set [2] is more than 3 h.

`CC(c1ccc(OC(F)F)nc1)N1C[C@@H](C(N)=O)n2nc3c(c2C1=O)CN(C(=O)c1ccc(Cl)c(Cl)c1)[C@H](C)C3` (single isomer, unassigned) [Compound 12A, (3R,7S)-2-(3,4-Dichlorobenzoyl)-9-((R*)-1-(6-(difluoromethoxy)pyridin-3-yl)ethyl)-3-methyl-10-oxo-1,2,3,4,7,8,9,10-octahydropyrido[4′,3′:3,4]pyrazolo[1,5-a]pyrazine-7-carboxamide] yielded a CC50 in data set [1] of 24.4 µM. The EC50 with HBV stood at 0.059 µM. The half-life at 1 μM in data set [2] is more than 3 h.

With `CNC(=O)[C@@H]1CN(C(C)c2nc(C(F)(F)F)cs2)C(=O)c2c3c(nn21)C[C@@H](C)N(C(=O)c1ccc(Cl)c(Cl)c1)C3` (single isomer, unassigned) [Compound 44A, (3R,7S)-2-(3,4-Dichlorobenzoyl)-N,3-dimethyl-10-oxo-9-((R*)-1-(4-(trifluoromethyl)thiazol-2-yl)ethyl)-1,2,3,4,7,8,9,10-octahydropyrido[4′,3′:3,4]pyrazolo[1,5-a]pyrazine-7-carboxamide], the CC50 in data set [1] was more than 50 µM. The compound also displayed an EC50 in the data set with HBV (setting [3]) of 0.12 µM. For the same compound, the half-life at 1 μM in data set [2] is more than 3 h.

On to `CNC(=O)[C@@H]1CN([C@H](C)c2cnc(C(F)(F)F)nc2)C(=O)c2c3c(nn21)C[C@@H](C)N(C(=O)c1ccc(Cl)c(Cl)c1)C3` [Compound 4A, (3R,7S)-2-(3,4-Dichlorobenzoyl)-N,3-dimethyl-10-oxo-9-((R)-1-(2-(trifluoromethyl)pyrimidin-5-yl)ethyl)-1,2,3,4,7,8,9,10-octahydropyrido[4′,3′:3,4]pyrazolo[1,5-a]pyrazine-7-carboxamide], for which the CC50 in data set [1] is more than 50 µM. This compound also came in with an EC50 with HBV (setting [3]) of 2.44 µM. Further, the half-life at 1 μM in data set [2] was more than 3 h.

In turn, `C[C@@H]1Cc2nn3c(c2CN1C(=O)c1ccc(Cl)c(C#N)c1)C(=O)N([C@@H](C)c1ccc(OC(F)F)cc1)C[C@H]3C(=O)N(C)C` [Compound 27B, (3R,7S)-2-(4-chloro-3-cyanobenzoyl)-9-((S)-1-(4-(difluoromethoxy)phenyl)ethyl)-N,N,3-trimethyl-10-oxo-1,2,3,4,7,8,9,10-octahydropyrido[4′,3′:3,4]pyrazolo[1,5-a]pyrazine-7-carboxamide] returned a CC50 in data set [1] of more than 50 µM. Moreover, it took 0.046 µM to reach a half-maximal effect with HBV (setting [3]) (EC50). For the same compound, the half-life at 1 μM in data set [2] was more than 3 h.

The compound `CNC(=O)[C@@H]1CN(C(C)c2cnc(C(F)(F)F)nc2)C(=O)c2c3c(nn21)C[C@@H](C)N(C(=O)c1ccc(Cl)c(C(F)(F)F)c1)C3` (single isomer, unassigned) [Compound 43A, (3R,7S)-2-(4-Chloro-3-(trifluoromethyl)benzoyl)-N,3-dimethyl-10-oxo-9-((R*)-1-(2-(trifluoromethyl)pyrimidin-5-yl)ethyl)-1,2,3,4,7,8,9,10-octahydropyrido[4′,3′:3,4]pyrazolo[1,5-a]pyrazine-7-carboxamide] came in with a 50% cytotoxic concentration (CC50) in data set [1] of more than 50 µM. Besides, the midpoint of the response in the data set on HBV, the EC50, lay at 0.61 µM. For the same compound, the half-life at 1 μM in data set [2] was more than 3 h.

`CNC(=O)[C@@H]1CN(C(C)c2ccn(CC(F)(F)F)n2)C(=O)c2c3c(nn21)C[C@@H](C)N(C(=O)c1ccc(Cl)c(C(F)(F)F)c1)C3` (single isomer, unassigned) [Compound 14B, (3R,7S)-2-(4-chloro-3-(trifluoromethyl)benzoyl)-N,3-dimethyl-10-oxo-9-((S*)-1-(1-(2,2,2-trifluoroethyl)-1H-pyrazol-3-yl)ethyl)-1,2,3,4,7,8,9,10-octahydropyrido[4′,3′:3,4]pyrazolo[1,5-a]pyrazine-7-carboxamide] displayed a CC50 in data set [1] of more than 50 µM. Besides, the EC50 with HBV (setting [3]) stood at 0.031 µM. For the same compound, the half-life at 1 μM in data set [2] was more than 3 h.

Turning to `CNC(=O)[C@@H]1CN([C@@H](C)c2ccc(OC(F)F)cc2)C(=O)c2c3c(nn21)C[C@@H](C)N(C(=O)c1ccc(Cl)c(C(F)(F)F)n1)C3` [Compound 45, (3R,7S)-2-(5-Chloro-6-(trifluoromethyl)picolinoyl)-9-((S)-1-(4-(difluoromethoxy)phenyl)ethyl)-N,3-dimethyl-10-oxo-1,2,3,4,7,8,9,10-octahydropyrido[4′,3′:3,4]pyrazolo[1,5-a]pyrazine-7-carboxamide], in data set [1], the CC50 worked out at 49.8 µM. In the data set on HBV (setting [3]), the EC50 was 0.067 µM. In data set [2], the half-life at 1 μM is more than 3 h.

Regarding `CNC(=O)[C@@H]1CN(Cc2ccc(OC(F)F)cc2)C(=O)c2c3c(nn21)C[C@@H](C)N(C(=O)c1ccc(Cl)c(C(F)(F)F)c1)C3` [Compound 28, (3R,7S)-2-(4-Chloro-3-(trifluoromethyl)benzoyl)-9-(4-(difluoromethoxy)benzyl)-N,3-dimethyl-10-oxo-1,2,3,4,7,8,9,10-octahydropyrido[4′,3′:3,4]pyrazolo[1,5-a]pyrazine-7-carboxamide], the midpoint of cytotoxicity in data set [1], the CC50, lay at 29.5 µM. Also, the EC50 in the data set on HBV (setting [3]) stood at 0.019 µM. For the same compound, in data set [2], the half-life at 1 μM is more than 3 h.

`C[C@@H]1Cc2nn3c(c2CN1C(=O)c1ccc(Cl)c(Cl)c1)C(=O)N([C@H](C)c1ccc(C#N)cc1)CC3` [Ref 4, reference compound] showed an EC50 with HBV (setting [3]) of 0.076 µM. The half-life at 1 μM in data set [2] is 0.225 h.

Regarding `CC(c1ccccn1)N1CCn2nc3c(c2C1=O)CN(C(=O)c1ccc(Cl)c(Cl)c1)[C@H](C)C3` (mixture of isomers) [Ref 3, reference compound], a half-maximal effect in the data set on HBV (setting [3]) (EC50) was put at 0.072 µM. The half-life at 1 μM in data set [2] turned out to be 0.11 h.

In the case of `C[C@@H]1Cc2nn3c(c2CN1C(=O)c1ccc(Cl)c(Cl)c1)C(=O)N([C@@H](C)c1ccc(C#N)cc1)CC3` [Ref 5, reference compound], it took 0.022 µM to reach a half-maximal effect in the data set on HBV (setting [3]) (EC50). In addition, the half-life at 1 μM in data set [2] was determined as 0.132 h.
